Laboratory results as given in ChEMBL document CHEMBL4507275, “Data for DCP probe BI-2545” (2021).

Legend:
[1] = molecular target: Cyclin-dependent kinase 17 (Homo sapiens) (UniProt Q00537); conditions: Compound concentration 1000.0 nM
[2] = molecular target: Casein kinase I isoform alpha-like (Homo sapiens) (UniProt Q8N752); conditions: Compound concentration 1000.0 nM
[3] = molecular target: Misshapen-like kinase 1 (Homo sapiens) (UniProt Q8N4C8); conditions: Compound concentration 1000.0 nM
[4] = test system: Leucine-rich repeat serine/threonine-protein kinase 2 (Homo sapiens), Q5S007 [G2019S]; conditions: Compound concentration 1000.0 nM
[5] = molecular target: Serine/threonine-protein kinase LATS1 (Homo sapiens) (UniProt O95835); conditions: Compound concentration 1000.0 nM
[6] = molecular target: Sodium-dependent noradrenaline transporter (Homo sapiens) (UniProt P23975); conditions: Compound concentration 10.0 uM
[7] = test system: Epidermal growth factor receptor (Homo sapiens), P00533 [L858R,T790M]; conditions: Compound concentration 1000.0 nM
[8] = molecular target: Ephrin type-A receptor 3 (Homo sapiens) (UniProt P29320); conditions: Compound concentration 1000.0 nM
[9] = molecular target: T1, 5-hydroxytryptamine receptor 1A (Homo sapiens) (UniProt P08908); conditions: Compound concentration 10.0 uM
T1 sequence (whole entry): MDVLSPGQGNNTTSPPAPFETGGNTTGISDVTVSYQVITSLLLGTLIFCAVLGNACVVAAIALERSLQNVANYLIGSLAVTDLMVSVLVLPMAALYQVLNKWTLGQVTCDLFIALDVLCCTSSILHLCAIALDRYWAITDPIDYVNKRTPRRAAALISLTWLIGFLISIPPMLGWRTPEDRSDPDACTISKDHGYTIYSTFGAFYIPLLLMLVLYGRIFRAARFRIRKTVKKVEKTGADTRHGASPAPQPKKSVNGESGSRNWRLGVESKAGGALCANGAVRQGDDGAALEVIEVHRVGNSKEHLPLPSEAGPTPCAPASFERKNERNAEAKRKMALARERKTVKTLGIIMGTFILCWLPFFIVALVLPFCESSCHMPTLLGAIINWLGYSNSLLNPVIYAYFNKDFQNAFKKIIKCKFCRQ

[10] = molecular target: Death-associated protein kinase 2 (Homo sapiens) (UniProt Q9UIK4); conditions: Compound concentration 1000.0 nM
[11] = molecular target: Dual specificity tyrosine-phosphorylation-regulated kinase 2 (Homo sapiens) (UniProt Q92630); conditions: Compound concentration 1000.0 nM
[12] = molecular target: Serine/threonine-protein kinase tousled-like 2 (Homo sapiens) (UniProt Q86UE8); conditions: Compound concentration 1000.0 nM
[13] = molecular target: Mast/stem cell growth factor receptor Kit (Homo sapiens) (UniProt P10721); conditions: Compound concentration 1000.0 nM
[14] = molecular target: 5-hydroxytryptamine receptor 2A (Homo sapiens, UniProt P28223); conditions: Compound concentration 10.0 uM
[15] = molecular target: MAP/microtubule affinity-regulating kinase 4 (Homo sapiens) (UniProt Q96L34); conditions: Compound concentration 1000.0 nM
Chain of MAP/microtubule affinity-regulating kinase 4 (Homo sapiens) (Q96L34 whole entry): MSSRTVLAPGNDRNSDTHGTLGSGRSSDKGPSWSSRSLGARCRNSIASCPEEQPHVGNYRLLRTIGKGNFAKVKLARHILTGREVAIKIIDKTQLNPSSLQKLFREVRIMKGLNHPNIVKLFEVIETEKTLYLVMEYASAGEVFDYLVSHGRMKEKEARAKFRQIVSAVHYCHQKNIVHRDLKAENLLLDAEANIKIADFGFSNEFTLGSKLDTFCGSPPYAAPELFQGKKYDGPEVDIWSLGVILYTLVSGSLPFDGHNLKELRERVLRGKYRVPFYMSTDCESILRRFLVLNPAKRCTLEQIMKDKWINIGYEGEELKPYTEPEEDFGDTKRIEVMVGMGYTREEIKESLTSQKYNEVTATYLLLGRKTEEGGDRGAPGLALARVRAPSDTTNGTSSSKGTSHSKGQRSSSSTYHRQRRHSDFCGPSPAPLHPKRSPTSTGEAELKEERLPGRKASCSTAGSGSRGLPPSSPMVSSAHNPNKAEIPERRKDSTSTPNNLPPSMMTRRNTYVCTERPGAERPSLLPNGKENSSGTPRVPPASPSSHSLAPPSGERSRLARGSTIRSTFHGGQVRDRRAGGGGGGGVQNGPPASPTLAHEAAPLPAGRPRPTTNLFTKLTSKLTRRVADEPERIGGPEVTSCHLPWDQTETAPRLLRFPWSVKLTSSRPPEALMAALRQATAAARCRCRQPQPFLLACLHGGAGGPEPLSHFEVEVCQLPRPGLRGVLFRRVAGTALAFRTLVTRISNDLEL

[16] = test system: Receptor-type tyrosine-protein kinase FLT3 (Homo sapiens), P36888 [UNDEFINED MUTATION]; conditions: Compound concentration 1000.0 nM
[17] = molecular target: Serine/threonine-protein kinase WNK1 (Homo sapiens) (UniProt Q9H4A3); conditions: Compound concentration 1000.0 nM
[18] = test system: Tyrosine-protein kinase ABL1 (Homo sapiens), P00519 [F317I]; conditions: Compound concentration 1000.0 nM
[19] = test system: Phosphatidylinositol 4,5-bisphosphate 3-kinase catalytic subunit alpha isoform (Homo sapiens), P42336 [I800L]; conditions: Compound concentration 1000.0 nM
[20] = test system: ALK tyrosine kinase receptor (Homo sapiens), Q9UM73 [C1156Y]; conditions: Compound concentration 1000.0 nM
[21] = molecular target: Cyclin-dependent kinase 18 (Homo sapiens) (UniProt Q07002); conditions: Compound concentration 1000.0 nM
Chain of Cyclin-dependent kinase 18 (Homo sapiens) (Q07002 whole entry): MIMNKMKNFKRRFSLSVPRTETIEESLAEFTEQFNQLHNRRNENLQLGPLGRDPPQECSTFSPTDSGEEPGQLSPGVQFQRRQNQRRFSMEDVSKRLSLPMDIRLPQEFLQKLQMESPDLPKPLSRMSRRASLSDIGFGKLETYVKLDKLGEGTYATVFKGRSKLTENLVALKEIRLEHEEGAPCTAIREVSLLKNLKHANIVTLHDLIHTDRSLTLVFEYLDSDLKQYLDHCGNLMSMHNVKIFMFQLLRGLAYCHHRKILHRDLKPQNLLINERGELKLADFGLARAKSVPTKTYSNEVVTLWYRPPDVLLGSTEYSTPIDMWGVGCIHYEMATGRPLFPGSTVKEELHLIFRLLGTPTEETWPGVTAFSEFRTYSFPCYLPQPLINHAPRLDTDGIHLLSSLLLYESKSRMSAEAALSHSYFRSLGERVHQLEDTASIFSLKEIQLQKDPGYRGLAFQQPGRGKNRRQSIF

[22] = molecular target: Receptor-interacting serine/threonine-protein kinase 1 (Homo sapiens) (UniProt Q13546); conditions: Compound concentration 1000.0 nM
[23] = molecular target: Cyclin-dependent kinase 2 (Homo sapiens) (UniProt P24941); conditions: Compound concentration 1000.0 nM
[24] = molecular target: Histamine H4 receptor (Homo sapiens) (UniProt Q9H3N8); conditions: Compound concentration 10.0 uM
[25] = molecular target: Cyclin-dependent kinase-like 3 (Homo sapiens) (UniProt Q8IVW4); conditions: Compound concentration 1000.0 nM
[26] = molecular target: Casein kinase I isoform alpha (Homo sapiens) (UniProt P48729); conditions: Compound concentration 1000.0 nM
Chain of Casein kinase I isoform alpha (Homo sapiens) (P48729 2-337 limits assumed): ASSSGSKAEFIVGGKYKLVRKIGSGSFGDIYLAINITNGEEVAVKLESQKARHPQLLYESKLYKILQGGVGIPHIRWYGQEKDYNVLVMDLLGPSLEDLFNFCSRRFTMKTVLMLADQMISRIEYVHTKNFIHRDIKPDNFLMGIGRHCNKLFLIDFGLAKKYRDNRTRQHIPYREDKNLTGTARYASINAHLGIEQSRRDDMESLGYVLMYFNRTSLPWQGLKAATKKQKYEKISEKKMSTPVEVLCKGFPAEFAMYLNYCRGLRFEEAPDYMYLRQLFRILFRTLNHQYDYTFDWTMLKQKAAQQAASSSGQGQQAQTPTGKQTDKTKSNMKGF

[27] = molecular target: Mitogen-activated protein kinase 4 (Homo sapiens) (UniProt P31152); conditions: Compound concentration 1000.0 nM
Chain of Mitogen-activated protein kinase 4 (Homo sapiens) (P31152 whole entry): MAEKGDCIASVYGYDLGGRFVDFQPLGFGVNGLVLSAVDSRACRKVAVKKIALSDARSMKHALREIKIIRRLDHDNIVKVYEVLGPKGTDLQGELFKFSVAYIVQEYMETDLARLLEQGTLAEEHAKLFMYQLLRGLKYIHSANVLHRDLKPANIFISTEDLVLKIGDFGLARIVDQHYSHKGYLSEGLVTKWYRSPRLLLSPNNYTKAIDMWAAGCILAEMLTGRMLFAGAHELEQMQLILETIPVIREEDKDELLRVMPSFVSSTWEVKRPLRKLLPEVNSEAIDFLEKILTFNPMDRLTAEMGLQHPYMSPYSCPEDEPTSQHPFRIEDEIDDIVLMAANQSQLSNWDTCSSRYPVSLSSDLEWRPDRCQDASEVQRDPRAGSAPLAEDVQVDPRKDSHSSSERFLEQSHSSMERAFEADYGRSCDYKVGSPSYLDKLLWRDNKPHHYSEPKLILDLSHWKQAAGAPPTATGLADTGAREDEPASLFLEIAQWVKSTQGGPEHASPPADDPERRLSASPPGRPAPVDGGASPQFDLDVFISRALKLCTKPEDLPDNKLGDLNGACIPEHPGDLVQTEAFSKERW

[28] = molecular target: Cyclin-dependent kinase 15 (Homo sapiens) (UniProt Q96Q40); conditions: Compound concentration 1000.0 nM
[29] = molecular target: Phosphatidylinositol 5-phosphate 4-kinase type-2 gamma (Homo sapiens) (UniProt Q8TBX8); conditions: Compound concentration 1000.0 nM
[30] = molecular target: Phosphatidylinositol 4,5-bisphosphate 3-kinase catalytic subunit gamma isoform (Homo sapiens) (UniProt P48736); conditions: Compound concentration 1000.0 nM
[31] = molecular target: Membrane-associated tyrosine- and threonine-specific cdc2-inhibitory kinase (Homo sapiens) (UniProt Q99640); conditions: Compound concentration 1000.0 nM
[32] = molecular target: Mitogen-activated protein kinase kinase kinase kinase 1 (Homo sapiens) (UniProt Q92918); conditions: Compound concentration 1000.0 nM
Chain of Mitogen-activated protein kinase kinase kinase kinase 1 (Homo sapiens) (Q92918 whole entry, looked up): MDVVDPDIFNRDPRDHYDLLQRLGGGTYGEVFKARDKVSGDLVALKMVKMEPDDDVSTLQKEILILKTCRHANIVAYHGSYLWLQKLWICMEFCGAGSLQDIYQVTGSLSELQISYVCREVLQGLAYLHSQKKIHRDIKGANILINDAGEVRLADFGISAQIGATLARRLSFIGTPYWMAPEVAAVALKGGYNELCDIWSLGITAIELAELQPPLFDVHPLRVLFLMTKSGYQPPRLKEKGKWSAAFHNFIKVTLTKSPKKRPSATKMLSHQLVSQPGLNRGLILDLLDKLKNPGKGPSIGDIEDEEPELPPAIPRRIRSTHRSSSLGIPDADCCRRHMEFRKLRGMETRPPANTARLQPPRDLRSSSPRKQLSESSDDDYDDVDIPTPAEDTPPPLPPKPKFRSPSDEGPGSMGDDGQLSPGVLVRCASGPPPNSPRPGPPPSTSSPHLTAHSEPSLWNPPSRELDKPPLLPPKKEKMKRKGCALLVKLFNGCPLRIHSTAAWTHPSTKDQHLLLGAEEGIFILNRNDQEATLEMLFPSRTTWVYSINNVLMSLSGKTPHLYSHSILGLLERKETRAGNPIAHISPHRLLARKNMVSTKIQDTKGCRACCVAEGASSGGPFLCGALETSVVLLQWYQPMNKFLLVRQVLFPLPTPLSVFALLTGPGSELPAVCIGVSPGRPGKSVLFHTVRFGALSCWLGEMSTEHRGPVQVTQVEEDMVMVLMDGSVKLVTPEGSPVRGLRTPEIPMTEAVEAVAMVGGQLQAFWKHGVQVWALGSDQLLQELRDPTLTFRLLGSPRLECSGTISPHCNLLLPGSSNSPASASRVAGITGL

[33] = test system: Epidermal growth factor receptor (Homo sapiens), P00533 [G719C]; conditions: Compound concentration 1000.0 nM
[34] = test system: Mast/stem cell growth factor receptor Kit (Homo sapiens), P10721 [V559D]; conditions: Compound concentration 1000.0 nM
[35] = molecular target: Myotonin-protein kinase (Homo sapiens) (UniProt Q09013); conditions: Compound concentration 1000.0 nM
Chain of Myotonin-protein kinase (Homo sapiens) (Q09013 whole entry): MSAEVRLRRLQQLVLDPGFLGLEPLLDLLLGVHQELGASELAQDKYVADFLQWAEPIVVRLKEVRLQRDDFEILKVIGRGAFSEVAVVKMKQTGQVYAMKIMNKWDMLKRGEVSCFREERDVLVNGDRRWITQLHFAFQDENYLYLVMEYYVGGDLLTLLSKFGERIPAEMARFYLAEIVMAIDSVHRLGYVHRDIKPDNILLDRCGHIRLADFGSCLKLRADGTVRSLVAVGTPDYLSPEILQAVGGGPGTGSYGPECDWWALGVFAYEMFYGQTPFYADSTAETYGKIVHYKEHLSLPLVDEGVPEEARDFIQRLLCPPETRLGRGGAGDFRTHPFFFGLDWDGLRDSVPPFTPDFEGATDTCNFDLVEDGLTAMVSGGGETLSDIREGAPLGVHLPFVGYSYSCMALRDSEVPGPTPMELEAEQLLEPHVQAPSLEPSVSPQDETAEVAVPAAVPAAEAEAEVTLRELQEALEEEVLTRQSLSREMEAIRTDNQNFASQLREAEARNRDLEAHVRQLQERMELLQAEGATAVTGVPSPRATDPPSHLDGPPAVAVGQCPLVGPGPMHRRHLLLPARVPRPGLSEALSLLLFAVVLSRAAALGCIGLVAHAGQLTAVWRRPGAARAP

[36] = test system: Proto-oncogene tyrosine-protein kinase receptor Ret (Homo sapiens), P07949 [V804L]; conditions: Compound concentration 1000.0 nM
[37] = molecular target: Serine/threonine-protein kinase Nek7 (Homo sapiens) (UniProt Q8TDX7); conditions: Compound concentration 1000.0 nM
Chain of Serine/threonine-protein kinase Nek7 (Homo sapiens) (Q8TDX7 whole entry, looked up): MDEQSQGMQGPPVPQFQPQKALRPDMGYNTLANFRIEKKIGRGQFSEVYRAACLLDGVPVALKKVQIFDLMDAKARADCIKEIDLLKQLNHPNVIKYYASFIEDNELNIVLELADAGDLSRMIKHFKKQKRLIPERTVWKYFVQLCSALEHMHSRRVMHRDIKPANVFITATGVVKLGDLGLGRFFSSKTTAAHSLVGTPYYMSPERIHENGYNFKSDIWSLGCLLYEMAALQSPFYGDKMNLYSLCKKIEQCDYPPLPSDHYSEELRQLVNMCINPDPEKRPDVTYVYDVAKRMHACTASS

[38] = molecular target: Muscarinic acetylcholine receptor M5 (Homo sapiens) (UniProt P08912); conditions: Compound concentration 10.0 uM
[39] = test system: Epidermal growth factor receptor (Homo sapiens), P00533 [UNDEFINED MUTATION]; conditions: Compound concentration 1000.0 nM

Chain of Cyclin-dependent kinase 17 (Homo sapiens) (Q00537 whole entry, looked up, canonical isoform): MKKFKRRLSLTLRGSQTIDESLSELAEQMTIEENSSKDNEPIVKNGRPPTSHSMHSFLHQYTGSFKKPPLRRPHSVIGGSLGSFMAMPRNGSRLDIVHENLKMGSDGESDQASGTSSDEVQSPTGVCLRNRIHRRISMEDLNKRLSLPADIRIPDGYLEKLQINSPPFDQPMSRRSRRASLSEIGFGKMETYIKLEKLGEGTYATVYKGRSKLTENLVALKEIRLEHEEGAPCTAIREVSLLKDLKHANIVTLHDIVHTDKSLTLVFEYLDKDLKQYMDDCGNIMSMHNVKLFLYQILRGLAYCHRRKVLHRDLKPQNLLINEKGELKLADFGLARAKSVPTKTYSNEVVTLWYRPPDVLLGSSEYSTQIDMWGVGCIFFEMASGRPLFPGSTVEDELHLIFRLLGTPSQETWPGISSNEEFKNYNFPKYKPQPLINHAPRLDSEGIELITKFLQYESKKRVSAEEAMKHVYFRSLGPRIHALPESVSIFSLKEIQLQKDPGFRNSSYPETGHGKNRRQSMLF
Chain of Casein kinase I isoform alpha-like (Homo sapiens) (Q8N752 whole entry, canonical isoform): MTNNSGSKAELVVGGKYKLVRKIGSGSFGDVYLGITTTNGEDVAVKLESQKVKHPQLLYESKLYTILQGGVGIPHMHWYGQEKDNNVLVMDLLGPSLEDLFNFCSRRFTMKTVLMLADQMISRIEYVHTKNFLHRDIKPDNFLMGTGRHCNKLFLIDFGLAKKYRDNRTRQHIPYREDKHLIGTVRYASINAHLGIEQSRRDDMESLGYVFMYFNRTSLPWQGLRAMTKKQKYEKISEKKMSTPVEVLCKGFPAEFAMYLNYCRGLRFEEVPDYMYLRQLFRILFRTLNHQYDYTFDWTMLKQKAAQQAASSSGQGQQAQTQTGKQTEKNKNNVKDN

`O=C(NC[C@@H]1[C@H]2CN(C(=O)OCc3cc(C(F)(F)F)cc(C(F)(F)F)c3)C[C@@H]12)c1ccc2[nH]nnc2c1` [BI 2545] showed a residual activity [1] of 100%, a residual activity [2] of 86% and a residual activity [3] of 72%. For the same compound, the residual activity [4] was 91%, the residual activity [5] was 96% and the inhibition [6] was 15.5%. The residual activity [7] was 80%, the residual activity [8] was 100% and the inhibition [9] was 0.91%. For the same compound, the residual activity [10] was 85%, the residual activity [11] was 77% and the residual activity [12] was 90%. For the same compound, the residual activity [13] was 89%, the inhibition [14] was 51.4% and the residual activity [15] was 94%. For the same compound, the residual activity [16] was 88%, the residual activity [17] was 90% and the residual activity [18] was 89%. The residual activity [19] was 83%, the residual activity [20] was 94% and the residual activity [21] was 100%. The residual activity [22] was 89%, the residual activity [23] was 100% and the inhibition [24] was 39.5%. The residual activity [25] was 87%, the residual activity [26] was 100% and the residual activity [27] was 80%. It also gave a residual activity [28] of 75%, a residual activity [29] of 100% and a residual activity [30] of 76%. It also gave a residual activity [31] of 100%, a residual activity [32] of 83% and a residual activity [33] of 100%. It also gave a residual activity [34] of 88%, a residual activity [35] of 94% and a residual activity [36] of 100%. It also gave a residual activity [37] of 83%, an inhibition [38] of 15.3% and a residual activity [39] of 100%.
With `Cc1nccc(COC(=O)N2C[C@@H]3[C@@H](CNC(=O)c4ccc5[nH]nnc5c4)[C@@H]3C2)n1` [BI 3017] the residual activity [1] was 90%, the residual activity [2] was 100% and the residual activity [3] was 100%. It also gave a residual activity [4] of 82%, a residual activity [5] of 89% and an inhibition [6] of -7.15%. For the same compound, the residual activity [7] was 100%, the residual activity [8] was 93% and the inhibition [9] was -7.66%. It also gave a residual activity [10] of 82%, a residual activity [11] of 94% and a residual activity [12] of 100%. It also gave a residual activity [13] of 89%, an inhibition [14] of 7.65% and a residual activity [15] of 85%. The residual activity [16] was 79%, the residual activity [17] was 86% and the residual activity [18] was 100%. It also gave a residual activity [19] of 73%, a residual activity [20] of 76% and a residual activity [21] of 100%. It also gave a residual activity [22] of 86%, a residual activity [23] of 77% and an inhibition [24] of 7.45%. For the same compound, the residual activity [25] was 99%, the residual activity [26] was 86% and the residual activity [27] was 94%. The residual activity [28] was 100%, the residual activity [29] was 100% and the residual activity [30] was 89%. The residual activity [31] was 100%, the residual activity [32] was 100% and the residual activity [33] was 100%. The residual activity [34] was 86%, the residual activity [35] was 98% and the residual activity [36] was 100%. For the same compound, the residual activity [37] was 100%, the inhibition [38] was -9.7% and the residual activity [39] was 87%.
